Patent publication US4322555A, “Nonaprenylamine derivatives” (priority 1980, dated 1982)
Counter-ions that a name gives are not always drawn. Like-named read-outs stand apart in the source and are kept apart here.

Tests used:
serum interferon = tested on: serum interferon; parameters: species or system mice; details: mouse, in vivo
[1] = tested on: vaccinia virus (DIE strain); format: in vivo, vaccinia virus (DIE strain) in ICR female mice; details: 50 mg/kg i.p. on the day just before inoculation; ICR female mice; lesions counted 8th day
[2] = Toxicity (acute toxicity, 50% lethal dose); details: mouse, in vivo, ddY male mice
[3] = iv, read-out: 50% Lethal dose, intravenously administered
[4] = ip, read-out: 50% Lethal dose, intraperitoneally administered

Row | Structure (SMILES) | Serum interferon (Plaque inhibition) (serum interferon) [%] | Prevention from vaccinia infection (Inhibition of tail lesion) [1] [%] | LD50 [2, 3] [mg/kg] | LD50 [2, 4] [mg/kg]
1 | CC(C)=CCCC(C)=CCCC(C)=CCCC(C)=CCCC(C)=CCCC(C)=CCCC(C)=CCCC(C)=CCCC(C)=CCNCc1ccccc1 [N-benzylsolanesylamine hydrochloride] | 31.5 | 74.7 | 152 | –
2 | CC(C)=CCCC(C)=CCCC(C)=CCCC(C)=CCCC(C)=CCCC(C)=CCCC(C)=CCCC(C)=CCCC(C)=CCN(C)Cc1ccccc1 [N-methyl-N-benzylsolanesylamine hydrochloride] | 44.5 | 17.5 | 550 | > 500
3 | CC(C)=CCCC(C)=CCCC(C)=CCCC(C)=CCCC(C)=CCCC(C)=CCCC(C)=CCCC(C)=CCCC(C)=CCN(C)c1ccccc1 [N-methyl-N-phenylsolanesylamine] | 24.1 | 26.8 | > 500 | > 500
4 | CC(C)=CCCC(C)=CCCC(C)=CCCC(C)=CCCC(C)=CCCC(C)=CCCC(C)=CCCC(C)=CCCC(C)=CCNCCc1ccccc1 [N-phenethylsolanesylamine hydrochloride] | 19.1 | 30.8 | 250 | > 500
